{"source": "patent US9527930B2", "about": "“FGF receptor-activating N-sulfate oligosaccharides, preparation thereof, and therapeutic use thereof” (priority 2009, dated 2016)", "target": "FGF-2 (Homo sapiens, UniProt P09038)", "sequence (P09038 143-288)": "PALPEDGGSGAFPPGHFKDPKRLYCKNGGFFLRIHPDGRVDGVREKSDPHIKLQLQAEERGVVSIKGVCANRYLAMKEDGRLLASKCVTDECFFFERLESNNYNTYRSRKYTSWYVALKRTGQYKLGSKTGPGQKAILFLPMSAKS", "assay": "in vitro cellular test of FGF-2 activation", "format": "cell-based", "data": [{"substance": "Sodium [methyl(sodium 2-O-sodium sulfonato-α-L-idopyranosyluronate)-(1→4)-(2-deoxy-6-O-sodium sulfonato-2-sodium (sulfonatoamino)-α-D-glucopyranosyl)-(1→4)-[(sodium 2-O-sodium sulfonato-α-L-idopyranosyluronate)-(1→4)-(2-deoxy-6-O-sodium sulfonato-2-sodium sulfonatoamino)-α-D-glucopyranos)-(1→4)]2-2-O-sodium sulfonato-α-L-idopyranoside]uronate [Compound 3]", "values": [{"measurement": "FGF-2 activation compared with the hexasaccharide analogue (C. Tabeur et al.)", "value": "better FGF-2 activators than the hexasaccharide analogue thereof"}]}]}
